# Assay results from US20240344103A1, “IN VITRO MODELS FOR ESTIMATING DRUG DOSAGE” (Hennepin Healthcare Research Institute, priority 2021, published 2024).
# Entries after “also recorded” stand apart in the source; their conditions may differ. Where two headings read alike, the source gives them in different places.
# What was measured:
# [1] = tested on: Gut Microbiota; conditions: cited from earlier work
# [2] = 12-hour MPA pharmacokinetic profile in kidney transplant patients taking MMF; type: in vivo, human; conditions: five kidney transplant participants on MMF
# Procedure: The following example used a stool sample of a kidney transplant patient who was on a steady state dose of 1 gram of mycophenolate mofetil (MMF) twice a day (FIG. 1). This patient underwent intensive pharmacokinetic sampling over 12 hours to assess enterohepatic recirculation (EHR) carefully and accurately. Once participants reach a steady state dose between days 15-45 post-transplant, fourteen blood samples were obtained at the time the morning MMF does was administered and at 30 minutes, one hour, two hours, three hours, four hours, five hours, six hours, seven hours, eight hours, nine hours, ten hours, 11 hours, and 12 hours following the morning MMF dose. The sampling strategy assured capture of the secondary peak and EHR characteristics.
# Five kidney transplant recipients taking MMF and tacrolimus as maintenance immunosuppression had their six-hour MPA levels assessed in the in vitro assay exposing microbiome to MPAG (FIG. 5). These patients also underwent an extensive 12-hour MPA pharmacokinetic (PK) profile (FIG. 6), and the stool samples were collected at the time of the PK profile. The percent EHR in these kidney transplant recipients was defined as [MPA AUC6-12 hour]/[AUC0-12 hour]×100 as a measure of their in vivo EHR. The correlation coefficient between the six-hour MPA level from the in vitro model with percentage EHR was 0.82 (95% CI—0.21 to 0.98, P=0.08).
# [3] = tested on: stool microbiota; assay: In vitro anaerobic culture of patient stool microbiome with MPA or MPAG, HPLC-MS/MS of supernatant; type: in vitro ADME, human
# Procedure: A human microbiome sample from stool was collected from a patient between days 15-45 post-transplant, during their 12-hour pharmacokinetic visit. Prior to the initiation of the culture of microbiome stool sample, in the MPA arm of the experiment, a 1 mg/mL stock solution of MPA was diluted to […] in thirteen anaerobic culture tubes by adding 0.7 mL of the stock MPA solution to 6.3 mL of YCFA (Yeast extract-Casein hydrolysate-fatty acids) medium broth. Likewise, for the MPAG arm of the experiment, a […] stock solution of MPAG was diluted to […] in thirteen anaerobic culture tubes by adding 0.7 mL of the stock MPAG solution to 6.3 mL of YCFA (Yeast extract-Casein hydrolysate-fatty acids) medium broth.
# Stool aliquots of ˜0.5 g were incubated in separate YCFA tubes containing MPA or MPAG for six hours, 24 hours, or 48 hours in separate tubes, at 37° C. under anaerobic conditions (FIG. 2). All aliquots were collected at each timepoint in triplicate. Aliquots were also collected from MPA and MPAG tubes without any stool samples at zero, six hours, 24 hours, and 48 hours to serve as controls for this experiment.
# After incubation, samples were […] at 16,000×g for 10 minutes, and the supernatant was collected and stored at −80° C. prior to high performance liquid chromatography-tandem mass spectrometry (HPLC-MS/MS) analysis. The supernatant was assessed for the presence and concentration of total MPA and MPAG using a validated mass spectrometry assay. Total MPA and MPAG concentration were determined based on certified analytical reference standards of […] of MPA and MPAG. These analytical reference standards were used as internal standards during the mass spectrometry assay.
# [4] = tested on: stool microbiota; assay: as above; type: in vitro ADME, human; conditions: stool frozen at −80° C. for mean 312 days, thawed at 4° C. overnight, assay at 37° C.; six and 24 hours
# [5] = effect of gut microbiome on the compound
Compound,Gut Microbiota Modification [1],"Effect of microbial modification [1, 5]",other results
NC(=O)c1cc(N2CC2)c([N+](=O)[O-])cc1[N+](=O)[O-] [CB1954],Improved efficacy,Activation [7],
Nc1nc(Cl)nc2c1ncn2[C@H]1C[C@H](O)[C@@H](CO)O1 [Cladribine],Inhibited efficacy,Inactivation[7],
O=C(O)Cc1ccccc1Nc1c(Cl)cccc1Cl [Diclofenac],,"Toxicity [2, 3]",
Nc1nc(F)nc2c1ncn2[C@@H]1O[C@H](COP(=O)(O)O)[C@@H](O)[C@@H]1O [Fludarabine de phosphate],Improved efficacy,Activation [7],
Nc1ccn([C@@H]2O[C@H](CO)[C@@H](O)C2(F)F)c(=O)n1 [Gemcitabine],Inhibited efficacy,Inactivation[7],
CCc1c2c(nc3ccc(OC(=O)N4CCC(N5CCCCC5)CC4)cc13)-c1cc3c(c(=O)n1C2)COC(=O)[C@]3(O)CC [Irinotecan],,"Toxicity [1, 2]",
"COc1c(C)c2c(c(O)c1C/C=C(\C)CCC(=O)O)C(=O)OC2 [MPA, mycophenolic acid]",,,"% EHR (MPA AUC6-12 hour/AUC0-12 hour×100), mean [2]: 46%; % EHR (MPA AUC6-12 hour/AUC0-12 hour×100), range [2]: 41-60%; mean MPA trough ([2]; SD ±1.66): 3.5 mg/L; mean dose normalized MPA AUC0-12 ([2]; ±0.02): 0.07 mg·h/L; MPA concentration after incubation with stool bacteria compared to control samples ([3]; MPA arm, one kidney transplant patient stool, YCFA, 37° C., anaerobic, six, 24 and 48 hours, controls without stool): did not change; also recorded: no difference was detected; MPA concentration relative to amount expected from full MPAG conversion ([3]; MPAG arm, one patient stool, 24 and 48 hours): higher than the amount expected if all MPAG is converted to MPA; MPA concentration in MPAG tubes incubated with stool microbiome samples ([3]; MPAG arm, starting at six hours, upward trend at 24 and 48 hours): increase; Release of MPA bioaccumulated in microbiome cells on addition of MPAG ([3]; in vitro assay, MPAG substrate added): led to the release of MPA that had accumulated inside the cells; also recorded: promotes the release of bioaccumulated MPA"
"COc1c(C)c2c(c(O[C@@H]3O[C@H](C(=O)O)[C@@H](O)[C@H](O)[C@H]3O)c1C/C=C(\C)CCC(=O)O)C(=O)OC2 [MPAG, mycophenolic acid glucuronide]",,,"MPAG concentration in the MPA tubes incubated with stool microbiome samples ([3]; MPA arm, MPA to MPAG conversion, six, 24, 48 hours): no detectable concentrations; MPAG concentration in MPAG tubes incubated with stool microbiome samples ([3]; MPAG arm, one patient stool, anaerobic, six hours post incubation): rapid metabolism; also recorded: rapid decrease; MPAG concentration in control aliquots ([3]; MPAG in YCFA without stool, zero, six, 24, 48 hours): remained stable; MPAG to MPA conversion by gut microbiota ([3]; stool of five kidney transplant patients, YCFA, anaerobic, first six hours): Rapid metabolism; also recorded: high MPAG to MPA conversion; MPAG to MPA conversion in repeat assay [4]: showed ability of the stool microbiome sample to metabolism MPAG to MPA as before"
CN(C)C(=N)N=C(N)N [Metformin],,"Activation [2, 11]",
"COc1c(C)c2c(c(O)c1C/C=C(\C)CCC(=O)OCCN1CCOCC1)C(=O)OC2 [Mycophenolate Mofetil (MMF), mycophenolate mofetil]",,Toxicity [4-6],
CC1=C(CC(=O)O)c2cc(F)ccc2/C1=C\c1ccc([S+](C)[O-])cc1 (stereo not shown) [Sulindac],,"Toxicity [2, 4-6]",
C=CC[C@@H]1/C=C(\C)C[C@H](C)C[C@H](OC)[C@H]2O[C@@](O)(C(=O)C(=O)N3CCCC[C@H]3C(=O)O[C@H](/C(C)=C/[C@@H]3CC[C@@H](O)[C@H](OC)C3)[C@H](C)[C@@H](O)CC1=O)[C@H](C)C[C@@H]2OC [Tacrolimus],,Inactivation [8],
Ipilimumab: Antil CTLA-4 human monoclonal antibody (Ab) therapeutic drug,,,"Effect of microbial modification [1]: Activation [2, 10]"
